This is an account of results in patent US10745387B2, “Crystalline form of (2S,3S,6S,7R,10R,E)-7,10-dihydroxy-3,7-dimethyl-12-oxo-2-((R,2E,4E)-6-(piridin-2-yl)hepta-2,4-dien-2-yl)oxacyclododec-4-en-6-yl-4-methylpiperazine-1-carboxylate and methods of use thereof” (EISAI R&D MANAGEMENT CO., LTD., priority 2015, dated 2020).

A short description of data set [1]: Solid state stability study. The class given is physicochemical. Here is the method:
Solid state stability studies were carried out on crystalline Form 1 under the following conditions: • Stored at 25° C. for 7 and 14 days • Stored at 40° C./75% RH (open) for 7 and 14 days • Stored at 60° C. for 7 and 14 days

Data set [2] relates to WiDr-R cells (SF3B1 R1074H mutation). The note with it: cited from earlier work.
Data set [3] has as its system splicing of Ad2 pre-mRNA in HeLa nuclear extract. The data set is described as follows: In vitro splicing (IVS) biochemical assay. The settings on record: 90 min, 30° C. On the procedure:
Biotin-labeled pre-mRNA of an adenovirus type 2 construct with a deletion of intervening sequence (Ad2) (Berg, M. G., et al. 2012 Mol. Cell Bio., 32(7):1271-83) was prepared by in vitro transcription. The Ad2 construct containing Exon 1 (41 nucleotides), Intron (231 nucleotides), and Exon 2 (72 nucleotides) was generated by gene synthesis and cloned into the EcoRI and XbaI sites of pGEM®-3Z vector (Promega) by Genewiz® (South Plainfield, N.J.). The plasmid was then linearized by XbaI digestion and purified. In vitro transcription and purification of transcribed pre-mRNA were performed using the MEGAscript® T7 transcription kit (Invitrogen™, Life Technologies™, Grand Island, N.Y.) and MEGAclear™ transcription clean-up kit (Invitrogen™, Life Technologies™, Grand Island, N.Y.), respectively, following the manufacturer's instructions. […]
In vitro splicing assay was performed at 30° C. in 254 reaction mixtures containing 95 μg HeLa nuclear extract (Promega Corporation, Madison, Wis.), 47 nM Ad2 pre-mRNA, 25U RNasin RNase inhibitor (Promega Corporation, Madison, Wis.), 1×SP buffer (0.5 mM ATP, 20 mM creatine phosphate, 1.6 mM MgCl2), and compounds in DMSO (with 1% final concentration of DMSO). […] The amount of spliced RNA was quantified by measuring the band fluorescent intensity using LI-COR Image Studio software. […]

Data set [4] has as its system WiDr-R cells (SF3B1 R1074H mutation). The data set is described as follows: Cell viability assay, resistant WiDr-R counter-screen. The note with it: 72 hr, ATP (CellTiter-Glo). The class given is cell-based. For orientation: Counterscreens check selectivity or assay interference.
For data set [5], the system named is WiDr cells (wildtype SF3B1). As to the kind of experiment: Cell viability assay (CellTiter-Glo), WiDr. It counts as cell-based. The settings on record: Homo sapiens, 72 hr, ATP (CellTiter-Glo). Here is the method: (§1) Cells (WiDr and Panc05.04 obtained from ATCC) were seeded in 96-well plates, with 2000 cells/1004/well, and incubated overnight. Spent media was removed, and fresh, media containing 9 different concentrations of compound (1004/well) were added, with DMSO concentration from compound stock solution adjusted to be 0.1%. Each compound treatment was done in duplicate or triplicate at each concentration.
(§2) Another plate with cells seeded was dedicated as a time zero (Tz) plate, to which was added 0.1% DMSO in media (1004/well) followed by CellTiter-Glo® reagent (Promega Corporation, Madison, Wis.) (504/well) for ATP measurement as a surrogate of cell viability. Average value from measurement of multiple wells of this plate is used as Tz.
(§3) Compound-treated plates were incubated for 72 hr at 37° C. Then, CellTiter-Glo® reagent (504/well) was added and ATP was measured. […]
(§4) Percentage growth inhibition/Percentage viability was calculated as: [(Ti−Tz)/(C−Tz)]×100 for concentrations for which Ti>/=Tz [(Ti−Tz)/Tz]×100 for concentrations for which Ti<Tz. *time zero (Tz), control growth (C), and test growth in the presence of compound (Ti) Percentage growth inhibition/Percentage viability are plotted versus compound concentration to determine Emax. […]
Background: ATP-based viability assays read luminescence as a measure of living cells.

Data set [6] has as its system Panc 05.04 (mt SF3B1 cells). As to the kind of experiment: Cell viability assay (CellTiter-Glo), Panc 05.04. The note with it: 72 hr. It counts as cell-based. Here is the method: as §1, §2, §3, §4

For `C/C(=C\C=C\[C@@H](C)c1ccccn1)[C@H]1OC(=O)C[C@H](O)CC[C@@](C)(O)[C@@H](OC(=O)N2CCN(C)CC2)/C=C/[C@@H]1C` [crystalline Form 1, (2S,3S,6S,7R,10R,E)-7,10-dihydroxy-3,7-dimethyl-12-oxo-2-((R,2E,4E)-6-(pyridin-2-yl)hepta-2,4-dien-2-yl)oxacyclododec-4-en-6-yl 4-methylpiperazine-1-carboxylate], in data set [1] (25° C., 40° C./75% RH (open), 60° C., each for 7 and 14 days), the “Degradation on storage (solid state stability)” value is listed as “No significant degradation”. The “Change in crystallinity (XRPD and TGA-DSC)” value in data set [1] (40° C./75% RH (open) for 14 days) is “no change in crystallinity”.
Regarding pladienolide B, in data set [2], the “Growth inhibition in WiDr-R cells (resistance)” value is given as “resistant”.
In the case of `CCC(O)C(C)C1OC1CC(C)(O)/C=C/C=C(\C)C1OC(=O)CC(O)CCC(C)(O)C(OC(=O)N2CCN(C3CCCCCC3)CC2)/C=C/C1C` (stereo not drawn) [Compound E7107, (8E,12E,14E)-7-((4-cycloheptylpiperazin-1-yl)carbonyl)oxy-3,6,16,21-tetrahydroxy-6,10,12,16,20-pentamethyl-18,19-epoxytricosa-8,12,14-trien-11-olide], in data set [2], the “Growth inhibition in WiDr-R cells (resistance)” value is given as “resistant”.
For the compound `C/C(=C\C=C\[C@@H](C)c1ccccn1)[C@H]1OC(=O)C[C@H](O)CC[C@@](C)(O)[C@@H](OC(=O)N2CCN(C)CC2)/C=C/[C@@H]1C` [Compound 1, (2S,3S,6S,7R,10R,E)-7,10-dihydroxy-3,7-dimethyl-12-oxo-2-((R,2E,4E)-6-(pyridin-2-yl)hepta-2,4-dien-2-yl)oxacyclododec-4-en-6-yl 4-methylpiperazine-1-carboxylate], the midpoint of inhibition in data set [3], the IC50, lay at 1330 nM. The GI50 in data set [4] was above 1000 nM; in data set [5] it was 31.8 nM; in data set [6] (ATP (CellTiter-Glo)), 32.7 nM. In addition, the Emax in data set [6] (negative value indicates cellular lethality) was -66.1%.

As a reminder, the IC50 is the midpoint of a concentration-inhibition curve. A higher IC50 goes with a need for much substance. As a reminder, the GI50 is the concentration at which growth is held to half of that of the control. The low end stands for more potent growth inhibition, the high end for less potent growth inhibition.
